# Where two headings read alike, the source gives them in different places.
# Columns and labels:
# E. faecalis [1] = experiment: Antiadhesive assay, pH effect (crystal violet); format: cell-based, Enterococcus faecalis; conditions: peptide at 1/32×MIC, BHI pH 7.4, 8.5, 9.5, 10.5, 1 hour, 595 nm
# E. faecalis [2] = experiment: Antibiofilm assay, pH effect (crystal violet); format: cell-based, Enterococcus faecalis; conditions: peptide at 1/32×MIC, BHI pH 7.4, 8.5, 9.5, 10.5, 24 hours, 595 nm
# [3] = RP HPLC retention time of peptides; format: physicochemical; conditions: Inertsil ODS-SP 4.6*250 mm 5μm, linear 0–100% acetonitrile with 0.1% trifluoroacetic acid, 1ml/minute, 30 minutes, highest peak in 214 nm, used as hydrophobicity measure
# Description: The retention time of the peptides were calculated by RP HPLC using an analytical SHIMADZU Inertsil ODS-SP (4.6*250 mm* 5μm) column. A linear gradient of 0–100% acetonitrile supplemented with 0.1% trifluoroacetic acid was used to elute peptides at a flow rate 1ml/minute for 30 minutes. The highest peak in 214 nm was considered as the retention time for each peptide.
# [4] = system: Acinetobacterbaumannii(Clinical isolate); format: cell-based, Acinetobacter baumannii; conditions: Brain heart infusion; 5×10^5 cell/ml; 18 hours at 37 °C; three independent tests
# Description: (§1) Briefly, a series of two-fold dilutions of each peptide(300, 150, 75, 37.5, 18.75, 9.37, 4.68 and 2.34μg/ml) was created with 0.01% acetic acid and 0.2% BSA (bovine serum albumin) and then 50 μl of each peptide dilution was added to each well of polystyrene flat bottom 96-well microplate (Sigma-Aldrich, Germany). Microbial suspension was diluted with BHI medium or RPMI medium to provide density of 1×10^6 cell/ml and 50 μl of diluted microbial suspension was added to wells containing 50 μl of peptide solution, providing a final concentration of 5×10^5 cell/ml and incubated for 18 hours at 37 °C. The sterility control well contained 100 μl of BHI (or RPMI), while the growth control well contained 100 μl of microbial suspension (5×10^5 cell/ml). The MIC values was defined as the lowest peptide concentration that prevented visible growth of the bacteria. Three independent tests were performed for each peptide concentration.
# [5] = system: clinical A. baumannii isolate; experiment: Time-kill analysis; format: cell-based, Acinetobacter baumannii; conditions: 5×10^5 cell/ml in BHI, 37°C, bactericidal = ≥3-log10 reduction, mean of two independent experiments
# Description: Time-Kill assay was performed to investigate bactericidal activity of both peptides against antibiotic resistant bacteria including S. aureus (MRSA), and clinical A. baumannii isolate. […] Colony count was performed after incubation at 37°C for 0, 2, 4, 8, 12 and 24 h by plating of 10-fold dilutions on LB agar. […] The lower limit of detection for time-kill assays was 2 log10 CFU/ml.
# E.coli = experiment: Binding affinity to bacteria, cell-based fluorometric ELISA, salt effect; parameters: species or system Escherichia coli; conditions: in the presence of 10 mM MgCl2; 5-FAM-labeled peptide 2.5μg/ml, 2 hours at 37°C; fluorescence 490/560 nm
# Description: Antimicrobial peptides bind to the bacterial cell wall through an electrostatic interaction between the positive charge of AMPs with the negative charge of the bacterial cell wall. […] To determine optimal binding conditions, different concentrations of the bacteria (12.5×10^7, 25×10^7, 5×10^8, 1×10^9 cell/ml) and 5-FAM-labeled peptide (1.25, 2.5, 5, and 10 μg/ml) were prepared. Bacterial suspension from each bacterial concentration was added to 4 wells of Maxisorp 96-well microplates (each well 100 μl) and incubated for 3 hours at 37°C without agitation. The planktonic cells were carefully discarded by pipetting and the adherent cells were washed three times with PBS buffer (pH 7.4). Bacteria were fixed with 100 μl of 4% paraformaldehyde and incubated for 0.5 hours at 37°C. The paraformaldehyde was removed and the wells were washed three times with PBS buffer (pH 7.4). The wells were air-dried and fixed cells were confirmed with an inverted microscope. […] After three washing steps with PBS-T buffer, the fluorescence intensity was measured using a fluorescence microplate reader (BioTek Synergy 4, USA) at 490/560 nm (Ex/Em). […] Under the optimized conditions, the binding affinity of both peptides to bacteria was assessed. […]
# [6] = system: Escherichia coli (ATCC 25922); format: cell-based; conditions: for increase of MIC value: E.coli
# Description: as §1
# In the next step, the pH and salt concentration effect on MIC of AMPs were assayed. To evaluate the effect of cations on the antibacterial activity of AMPs, bacteria were cultured in the BHI medium containing increased concentrations of monovalent or divalent salt including NaCl (62,125,250 and 500 mM), MgCl2 (1,5, 10 and 30 mM), respectively.
# [7] = system: Candida albicans (clinical isolate); format: cell-based; conditions: RPMI medium; 5×10^5 cell/ml; 18 hours at 37 °C; three independent tests
# Description: as §1
# [8] = system: Candida tropicalis(clinical isolate); format: cell-based; conditions: RPMI medium; 5×10^5 cell/ml; 18 hours at 37 °C; three independent tests
# Description: as §1
# [9] = system: Staphylococcus aureus(MRSA); format: cell-based; conditions: Brain heart infusion; 5×10^5 cell/ml; 18 hours at 37 °C; three independent tests
# Description: as §1
# [10] = system: Candida glabrata(clinical isolate); format: cell-based; conditions: RPMI medium; 5×10^5 cell/ml; 18 hours at 37 °C; three independent tests
# Description: as §1
# [11] = system: Pseudomonas aeruginosa (ATCC10662); format: cell-based; conditions: Brain heart infusion; 5×10^5 cell/ml; 18 hours at 37 °C; three independent tests
# Description: as §1
# [12] = system: Staphylococcus epidermidis (ATCC 1435); format: cell-based; conditions: Brain heart infusion; 5×10^5 cell/ml; 18 hours at 37 °C; three independent tests
# Description: as §1
# [13] = system: Staphylococcus aureus(ATCC 25923); format: cell-based; conditions: Brain heart infusion; 5×10^5 cell/ml; 18 hours at 37 °C; three independent tests
# Description: as §1
# [14] = system: Enterococcus faecalis (ATCC:6057); experiment: MIC at different pH values; format: cell-based; conditions: 37°C for 18 hours
# Description: The antibacterial activity of both peptides were assessed against Enterococcus faecalis, a bacteria resistance to alkaline environments (ATCC:6057), at different pH values (pH range: 7.4, 8.5, 9.5, or 10.5). The bacteria were cultured in the BHI medium adjusted to varying pH values (pH range: 7.4, 8.5, 9.5, and 10.5). After incubation at 37°C for 18 hours, the MIC values were determined.
sequence,measurement,setting,value
"FLRSLLRGAKAIYRGARAGWRG [Dicentracin-like, 22-amino-acid mature AMP from Asian sea bass; synthesized with N-terminal 5-FAM and amidated C-terminus]",antiadhesive activity (bacterial adhesion relative to corresponding control),E. faecalis [1],significantly decrease the bacterial adhesion and biofilm formation at pH values from 7.4 to 9.5
same,antibiofilm activity (biofilm formation relative to corresponding control),E. faecalis [2],significantly decrease the bacterial adhesion and biofilm formation at pH values from 7.4 to 9.5
same,retention time (main peak),[3],20.518 min
same,minimum inhibitory concentration (MIC),[4],18.75 mg/L
same,time after which bactericidal effect was observed,[5]; 1XMIC,4 h
same,time after which bactericidal effect was observed,[5]; 2XMIC,2 h
same,reduction in affinity binding to bacteria,E.coli,1.6 fold
same,Activity (MIC) against E.coli,[6]; BHI medium with MgCl2 1 mM,4.68 mg/L
same,Activity (MIC) against E.coli,[6]; BHI medium with MgCl2 5 mM,18.75 mg/L
same,Activity (MIC) against E.coli,[6]; BHI medium with MgCl2 10 mM,18.75 mg/L
same,Activity (MIC) against E.coli,[6]; BHI medium with MgCl2 30 mM,75 mg/L
same,Activity (MIC) against E.coli,[6]; BHI medium with NaCl 62 mM,4.68 mg/L
same,Activity (MIC) against E.coli,[6]; BHI medium with NaCl 125 mM,4.68 mg/L
same,Activity (MIC) against E.coli,[6]; BHI medium with NaCl 250 mM,6.05 mg/L
same,Activity (MIC) against E.coli,[6]; BHI medium with NaCl 500 mM,9.37 mg/L
same,minimum inhibitory concentration (MIC),"[6]; Brain heart infusion, 5×10^5 cell/ml, 18 hours at 37 °C, lowest concentration preventing visible growth, three independent tests",4.68 mg/L
same,increase of MIC value,"[6]; in the presence of 5 mM and 10 mM MgCl2, MIC (MgCl2) /MIC",4 fold
same,increase of MIC value,[6]; in the presence of 30 mM MgCl2,16 fold
same,increase of MIC value,[6]; in the presence of 500 mM NaCl,2 fold
same,Activity (MIC) against E.coli,[6]; Physiological salt concentrations (150 mM NaCl 3 mM CaCl2 2 mM MgCl2),4.68 mg/L
same,minimum inhibitory concentration (MIC),[7],4.68 to 9.37 mg/L
same,minimum inhibitory concentration (MIC),[8],4.68 to 9.37 mg/L
same,minimum inhibitory concentration (MIC),[9],4.68 mg/L
same,minimum inhibitory concentration (MIC),[10],>150 mg/L
same,minimum inhibitory concentration (MIC),[11],37.5 mg/L
same,minimum inhibitory concentration (MIC),[12],1.17 mg/L
same,minimum inhibitory concentration (MIC),[13],4.68 mg/L
same,MIC(fold increase),[14]; BHI medium pH 7.4,1 fold
same,MIC(fold increase),[14]; BHI medium pH 8.5,1 fold
same,MIC(fold increase),"[14]; BHI medium pH 8.5, listed as dicentracin-like",no reduction
same,MIC(fold increase),[14]; BHI medium pH 9.5,2 fold
same,MIC(fold increase),[14]; BHI medium pH 10.5,4 fold
